Laboratory results published in US11357752B2, “Carolacton and derivatives thereof for use in the treatment of cell proliferation disorders” (Helmholtz-Zentrum für Infektionsforschung GmbH, priority 2017, dated 2022).

Tests used:
S. pneumoniae TIGR4Δfhs = test: Planktonic growth of S. pneumoniae fhs deletion mutant; type: cell-based, Streptococcus pneumoniae; conditions: S. pneumoniae fhs inactivated mutant; 0.25 μg/ml carolacton
Protocol: FIG. 4. Carolacton effects on S. pneumoniae TIGR4 and foID deletion, complementation and fhs deletion mutants. (A) Growth inhibition of planktonic cultures of S. pneumoniae TIGR4 wild type, ΔfoID deletion mutant and controls in THBY. Carolacton (caro) (0.25 μg/ml) was added at an optical density of 600 nm (OD600) of 0.15. (B) Planktonic growth of the S. pneumoniae TIGR4 wild type and the TIGR4Δfhs mutant in THBY. Cultures were treated with 0.25 μg/ml carolacton (OD600 0.15).
The Streptococcus mutans and Streptococcus pneumoniae strains used herein are UA159 and TIGR4, respectively. S. pneumoniae TIGR4 was routinely grown on Columbia blood agar plates (BD Biosciences) as described previously (Donner et. al, 2016). Streptococci were grown in Todd-Hewitt-Broth +1% (w/v) yeast extract (THBY, BD Biosciences)) at 37° C. and 5% CO2. The E. coli ToIC strain used in carolacton-resistant mutant development is an antibiotic-sensitive E. coli strain without its outer membrane channel protein ToIC. E. coli DH1OB or DH5α strain was used for gene cloning and E. coli BL21 (DE3) was used for protein expression. The protein expression plasmid pHis-TEV (Liu et al., 2009) was used for cloning and expression of all different foID gene orthologues studied herein.

spFoID = target: T1, spFoID (Streptococcus pneumoniae serotype 4, UniProt Q97RI9); test: Surface plasmon resonance assay; type: binding, S. pneumoniae; conditions: read-out: KD (SPR)
T1 construct: made in house; host or cells: E. coli BL21 (DE3)
Protocol: All surface plasmon resonance (SPR) experiments described in this study were performed on a Biacore X100 system. Different FoIDs with or without His-tag were coupled on CM5 sensor chips (GE Healthcare) by the amine coupling method using a kit from GE Healthcare Life Sciences (Freiburg, Germany). A pH scouting process was performed before protein immobilization to test the most appropriate buffer and the protein concentration for protein coupling. Finally, 20 μg/mL of ecFoID in 10 mM maleate buffer (pH 6.8), 30 μg/mL of ecFoID Q98H in 10 mM maleate buffer (pH 6.3), 40 μg/mL of ecFoID K54N in 10 mM maleate buffer (pH 5.8), 20 μg/mL of spFoID in 10 mM maleate buffer (pH 6.0) and 15 μg/mL of MTHFD2 (His-tag cleaved) in 10 mM maleate buffer (pH 6.8) were used for coupling. In the protein immobilization procedure, the contact time was calculated based on the pH scouting results to achieve -3000-5000 relative resonance units (RU). The buffer used in the SPR assays was 1×HBS-P buffer (10 mM HEPES pH 7.4, 150 mM NaCl, 0.05% Tween 20). The 1 mM stock solution of carolacton was prepared in 1×HBS-P buffer and diluted to different concentration ranges by two-fold serial dilution. In the SPR assay, the association time was 180 s and the dissociation time was 600 s. Data analysis was performed using the Biacore evaluation software. […]

L-929 mouse fibroblasts = test: Toxicity assay (MTT, confluent layer); type: cell-based; conditions: L929; after 18 h
Protocol: L-929 mouse fibroblasts from DSMZ cultivated at 37° C. and […] in DME medium (high glucose) supplemented with 10% fetal calf serum. Cell culture reagents came from Life Technologies Inc. (GIBCO BRL). […] of sus-pended cells (100,000/mL) were seeded into wells of 96-well plate. After 4 days when the cells had formed a confluent layer, […] of serial dilutions of the test compound were added to the cells. After 18 hours of incubation metabolic activity of the cells was determined using an MTT assay (Mosman et al., 1983).

S. mutans ΔfoID biofilms = test: S. mutans biofilm viability assay, foID deletion mutant; type: cell-based, Streptococcus mutans; conditions: 2.5 μg/ml carolacton
Protocol: According to Reck et al., 2011, S. mutans biofilms were grown in THBY+0.5% (w/v) sucrose in the presence of 2.5 μg/ml carolacton (cf. SI Methods). Cell viability was determined by staining of 20 h-old S. mutans biofilms with the LIVE/DEAD Viability Kit (Invitrogen) and by measuring fluorescence with a Victor^3 multilabel counter (Perkin-Elmer). Subsequently, the green/red fluorescence ratio was calculated and the relative inhibition of the treated biofilms determined in comparison to the untreated control.
For determination of Carolacton-induced cell death of S. mutans biofilms, o/n cultures of S. mutans were diluted to an OD600 of 0.01 in THBY+0.5% (w/v) sucrose. 10 μl of a Carolacton solution (2.5 μg/ml and 0.25 μg/ml in methanol) was pipetted into the wells of black a 96-well polystyrene Nunc MicroWell plates with transparent bottoms (ThermoFisher); control wells contained 10 μl of methanol. […]
The viability of S. mutans biofilm cells was assayed by staining with the commercially available Live/Dead staining kit (Invitrogen). […] Green and red fluorescence values of stained cells were measured using a Victor^3 fluorescence plate reader (Perkin-Elmer). The green/red ratio of treated and untreated cells was calculated and the relative cell death within Carolacton-treated biofilms determined relative to the untreated controls (Reck et al., 2011).

T1 sequence (Q97RI9 whole entry): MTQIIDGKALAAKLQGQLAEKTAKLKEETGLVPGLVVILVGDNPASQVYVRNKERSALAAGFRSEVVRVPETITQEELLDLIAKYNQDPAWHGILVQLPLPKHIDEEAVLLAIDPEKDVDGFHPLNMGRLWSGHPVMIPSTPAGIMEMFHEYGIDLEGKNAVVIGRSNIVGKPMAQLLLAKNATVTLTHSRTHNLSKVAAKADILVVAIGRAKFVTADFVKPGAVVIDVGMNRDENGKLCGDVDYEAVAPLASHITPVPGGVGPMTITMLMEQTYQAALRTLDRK

Structure (SMILES): CO[C@H](CC(=O)O)[C@@H](C)C(=O)[C@H](C)/C=C(\C)[C@H]1OC(=O)[C@H](O)[C@H](O)/C=C/[C@H](C)CCC[C@@H]1C [Carolacton, carolacton]
- inhibition of planktonic growth (S. pneumoniae TIGR4Δfhs): complete inhibition
- Kd (spFoID): 27 nM
- acute toxicity (L-929 mouse fibroblasts): no acute toxicity
- sensitivity of biofilms to carolacton treatment (S. mutans ΔfoID biofilms): fully insensitive
